EPA's ToxRefDB 2

How the values were obtained:
rat [1] = settings: Multigenerational reproductive toxicity study, sprague dawley, Oral, Gavage/Intubation, dose end: 1 generation
primate = settings: Subchronic oral toxicity in nonrodent, macaque, Gavage/Intubation, dose end: 90 day, group: systemic, systemic / in life observation / clinical signs / defecation (diarrhea) + systemic / in life observation / clinical signs / emesis
rabbit [2] = settings: Prenatal developmental toxicity study; new zealand white; Oral; Gavage/Intubation; dose end: 18 GD; group: maternal; systemic / in life observation / body weight / body weight gain + systemic / in life observation / clinical signs / [other] + systemic / in …
rat [3] = settings: Multigenerational reproductive toxicity study, sprague dawley, Oral, Gavage/Intubation, dose end: 1 generation, group: parental
dog [4] = settings: Subchronic oral toxicity in nonrodent, beagle, Feed, dose end: 13 week, group: systemic, systemic / pathology microscopic / liver / infiltration cellular + systemic / pathology microscopic / liver / necrosis + systemic / …
rat [5] = settings: Subchronic oral toxicity in rodents, other, Feed, dose end: 3 month, group: systemic
rat [6] = settings: Prenatal developmental toxicity study, other, Oral, Gavage/Intubation, dose end: 15 GD
mouse [7] = settings: Carcinogenicity; other; Oral; Feed; dose end: 18 month; group: systemic; systemic / in life observation / body weight / body weight + systemic / in life observation / body weight / body weight gain + systemic / in…
rabbit [8] = settings: Prenatal developmental toxicity study, chinchilla, Oral, Gavage/Intubation, dose end: 19 GD
dog [9] = settings: Chronic toxicity; beagle; Oral; Feed; dose end: 12 month; group: systemic; systemic / in life observation / body weight / body weight gain + systemic / in life observation / food consumption / food consumption + …
rat [10] = settings: Subchronic oral toxicity in rodents, fischer, Feed, dose end: 13 week, group: systemic, systemic / clinical chemistry / alanine aminotransferase (alt/sgpt) / alanine aminotransferase (alt/sgpt) + systemic / clinical chemistry / …
mouse [11] = settings: Subchronic oral toxicity in rodents, b6c3f1, Gavage/Intubation, dose end: 14 week, group: systemic
mouse [12] = settings: Carcinogenicity; b6c3f1; Oral; Gavage/Intubation; dose end: 2 year; group: systemic; systemic / pathology microscopic / bone marrow / hyperplasia + systemic / pathology microscopic / liver / hypertrophy + systemic / pathology…
rat [13] = settings: Subchronic oral toxicity in rodents, fischer, Gavage/Intubation, dose end: 14 week
rat [14] = settings: Carcinogenicity; fischer; Oral; Gavage/Intubation; dose end: 2 year; group: systemic; systemic / pathology microscopic / kidney / nephropathy + systemic / pathology microscopic / liver / clear cell focus + systemic / pathology…
rat [15] = settings: Prenatal developmental toxicity study, sprague dawley, Oral, Gavage/Intubation, dose end: 15 GD, group: maternal
rat [16] = settings: Subchronic oral toxicity in rodents, sprague dawley, Gavage/Intubation, dose end: 30 day, group: systemic, systemic / in life observation / clinical signs / soft stools + systemic / in life observation / clinical signs / urine, discoloration
rat [17] = settings: Prenatal developmental toxicity study; wistar; Injection; Intraperitoneal; dose end: 18 GD; group: maternal; reproductive / reproductive performance / resorptions / resorptions + reproductive / reproductive performance / reproductive performance …
rat [18] = settings: Prenatal developmental toxicity study; wistar; Injection; Intraperitoneal; dose end: 18 GD; group: developmental; developmental / developmental malformation / placenta / size + systemic / in life observation / body weight / fetal weight
rabbit [19] = settings: Prenatal developmental toxicity study, new zealand white, Injection, Intravenous, dose end: 15 GD
rat [20] = settings: Prenatal developmental toxicity study; sprague dawley; Injection; Intraperitoneal; dose end: 20 GD; group: maternal; reproductive / reproductive performance / reproductive performance other / runts + systemic / in life observation / body weight / body …
[21] = group: offspring, systemic / in life observation / body weight / offspring (pup) weight
[22] = group: parental, systemic / in life observation / clinical signs / [other]
[23] = group: parental, systemic / in life observation / clinical signs / [other] + systemic / in life observation / body weight / body weight gain + systemic / in …
[24] = systemic / clinical chemistry / albumin / albumin + systemic / clinical chemistry / albumin-globulin ratio / albumin-globulin ratio + …
[25] = systemic / clinical chemistry / cholesterol / cholesterol
[26] = systemic / pathology microscopic / urinary bladder / hyperplasia + systemic / clinical chemistry / bilirubin / total bilirubin
[27] = systemic / pathology microscopic / urinary bladder / hyperplasia + systemic / pathology microscopic / kidney / atrophy + systemic / …
[28] = group: developmental, developmental / developmental malformation / bone / bipartite ossification + developmental / developmental malformation / bone / dumbbell …
[29] = group: maternal, systemic / in life observation / body weight / body weight gain + systemic / in life observation / clinical signs / odorous urine + systemic…
[30] = group: developmental, developmental / developmental malformation / bone / unossified
[31] = group: maternal, systemic / in life observation / mortality / mortality + systemic / in life observation / clinical signs / reduced motor activity + systemic…
[32] = systemic / hematology / heinz body / heinz body + systemic / hematology / methemoglobin / methemoglobin + systemic / in life observation / …
[33] = systemic / organ weight / liver / absolute + systemic / organ weight / liver / relative to body weight + systemic / pathology microscopic / …
[34] = group: maternal, reproductive / reproductive performance / estrous cycle / abnormal
[35] = group: systemic, systemic / clinical chemistry / alanine aminotransferase (alt/sgpt) / alanine aminotransferase (alt/sgpt) + systemic / clinical chemistry / …
[36] = systemic / in life observation / clinical signs / salivation + systemic / in life observation / clinical signs / soft stools + systemic / in…
[37] = group: developmental, developmental / developmental malformation / bone / [other] + developmental / developmental malformation / brain / hydrocephaly + …
[38] = group: maternal, reproductive / reproductive performance / resorptions / resorptions
[39] = group: maternal, reproductive / reproductive performance / resorptions / resorptions + reproductive / offspring survival early / live fetuses / live fetuses

In the case of COc1ccc2c(c[n+](C)c3c4cc5c(cc4ccc23)OCO5)c1OC.C[n+]1cc2c3c(ccc2c2ccc4cc5c(cc4c21)OCO5)OCO3.[Cl-].[Cl-] [Chelerythrine chloride mixture with sanguinarine chloride], the LEL (rat [1]; [21]) is reported as 100 mg/kg/day, the LOAEL (rat [1]; [21]) is reported as 100 mg/kg/day and the NEL (rat [1]; [21]) is reported as 30 mg/kg/day. It also gave an NOAEL (rat [1]; [21]) of 30 mg/kg/day, an LEL (rat [1]; [22]) of 30 mg/kg/day and an LOAEL (rat [1]; [22]) of 30 mg/kg/day. The NEL (rat [1]; [23]) was 10 mg/kg/day, the NOAEL (rat [1]; [23]) was 10 mg/kg/day and the LEL (primate) was 10 mg/kg/day. For the same molecule, the LOAEL (primate) was 10 mg/kg/day, the NEL (primate) was less than 10 mg/kg/day and the NOAEL (primate) was less than 10 mg/kg/day. For the same molecule, the LEL (rabbit [2]) was 25 mg/kg/day, the LOAEL (rabbit [2]) was 25 mg/kg/day and the NEL (rabbit [2]) was 15 mg/kg/day. For the same molecule, the NOAEL (rabbit [2]) was 15 mg/kg/day.
Molecule O=S(=O)([O-])C(F)(F)C(F)(F)C(F)(F)C(F)(F)C(F)(F)C(F)(F)F.[K+] [PFHS-K] has an LOAEL (rat [3]; [24]) greater than 10 mg/kg/day, an NOAEL (rat [3]; [24]) of no less than 10 mg/kg/day and an LEL (rat [3]; [25]) of 0.3 mg/kg/day. It also gave an NEL (rat [3]; [25]) of less than 0.3 mg/kg/day.
CCCCCC(C)OC(=O)COc1ccc(Cl)c2cccnc12 (stereo not drawn) [Cloquintocet-mexyl] was tested, and the LEL (dog [4]) was 30.2 mg/kg/day, the LOAEL (dog [4]) was 30.2 mg/kg/day and the NEL (dog [4]) was 3.3 mg/kg/day. For the same molecule, the NOAEL (dog [4]) was 3.3 mg/kg/day, the LEL (rat [5]; [26]) was 63.9 mg/kg/day and the LOAEL (rat [5]; [26]) was 63.9 mg/kg/day. The NEL (rat [5]; [27]) was 9.66 mg/kg/day, the NOAEL (rat [5]; [27]) was 9.66 mg/kg/day and the LEL (rat [6]; [28]) was 400 mg/kg/day. For the same molecule, the LOAEL (rat [6]; [28]) was 400 mg/kg/day, the NEL (rat [6]; [28]) was 100 mg/kg/day and the NOAEL (rat [6]; [28]) was 100 mg/kg/day. The LEL (rat [6]; [29]) was 400 mg/kg/day, the LOAEL (rat [6]; [29]) was 400 mg/kg/day and the NEL (rat [6]; [29]) was 100 mg/kg/day. The NOAEL (rat [6]; [29]) was 100 mg/kg/day, the LEL (mouse [7]) was 520 mg/kg/day and the LOAEL (mouse [7]) was 520 mg/kg/day. For the same molecule, the NEL (mouse [7]) was 102 mg/kg/day, the NOAEL (mouse [7]) was 102 mg/kg/day and the LEL (rabbit [8]; [30]) was 60 mg/kg/day. For the same molecule, the LOAEL (rabbit [8]; [30]) was greater than 300 mg/kg/day, the NEL (rabbit [8]; [30]) was 10 mg/kg/day and the NOAEL (rabbit [8]; [30]) was no less than 300 mg/kg/day. It also gave an LOAEL (rabbit [8]; group: maternal, systemic / in life observation / mortality / mortality) of 300 mg/kg/day, an LEL (rabbit [8]; [31]) of 300 mg/kg/day and an NEL (rabbit [8]; [31]) of 60 mg/kg/day. For the same molecule, the NOAEL (rabbit [8]; [31]) was 60 mg/kg/day, the LEL (dog [9]) was 196 mg/kg/day and the LOAEL (dog [9]) was 196 mg/kg/day. For the same molecule, the NEL (dog [9]) was 43 mg/kg/day and the NOAEL (dog [9]) was 43 mg/kg/day.
With CC(C)CCCCCOC(=O)c1nc(Cl)c(Cl)c(N)c1Cl [Picloram-isoctyl] the LEL (rat [10]) was 220 mg/kg/day, the LOAEL (rat [10]) was 220 mg/kg/day and the NEL (rat [10]) was 73 mg/kg/day. The NOAEL (rat [10]) was 73 mg/kg/day.
For Cc1ccc(N(C)C)cc1 [N,N,4-Trimethylaniline], the LOAEL (mouse [11]; [32]) was greater than 250 mg/kg/day, the NOAEL (mouse [11]; [32]) was no less than 250 mg/kg/day and the LEL (mouse [11]; [33]) was 15 mg/kg/day. It also gave an NEL (mouse [11]; [33]) of less than 15 mg/kg/day, an LEL (mouse [12]) of 6 mg/kg/day and an LOAEL (mouse [12]) of 6 mg/kg/day. The NEL (mouse [12]) was less than 6 mg/kg/day, the NOAEL (mouse [12]) was less than 6 mg/kg/day and the LEL (rat [13]; [34]) was 125 mg/kg/day. It also gave an LOAEL (rat [13]; [34]) greater than 1000 mg/kg/day, an NEL (rat [13]; [34]) of 62.5 mg/kg/day and an NOAEL (rat [13]; [34]) of no less than 1000 mg/kg/day. For the same molecule, the LEL (rat [13]; [35]) was 62.5 mg/kg/day, the LOAEL (rat [13]; [35]) was greater than 1000 mg/kg/day and the NEL (rat [13]; [35]) was less than 62.5 mg/kg/day. It also gave an NOAEL (rat [13]; [35]) of no less than 1000 mg/kg/day, an LEL (rat [14]) of 6 mg/kg/day and an LOAEL (rat [14]) greater than 60 mg/kg/day. For the same molecule, the NEL (rat [14]) was less than 6 mg/kg/day and the NOAEL (rat [14]) was no less than 60 mg/kg/day.
O=C(O)c1c(Cl)c(Cl)c(C(=O)O)c(Cl)c1Cl [Chlorthal] gave an LOAEL (rat [15]; systemic / in life observation / clinical signs / salivation + systemic / in life observation / clinical signs / soft stools) of 2500 mg/kg/day, an LEL (rat [15]; [36]) of 2500 mg/kg/day and an NEL (rat [15]; [36]) of 1250 mg/kg/day. For the same molecule, the NOAEL (rat [15]; [36]) was 1250 mg/kg/day, the LEL (rat [16]) was 2000 mg/kg/day and the LOAEL (rat [16]) was 2000 mg/kg/day. The NEL (rat [16]) was 500 mg/kg/day and the NOAEL (rat [16]) was 500 mg/kg/day.
In the case of CN(Cc1cnc2nc(N)nc(N)c2n1)c1ccc(C(=O)N[C@@H](CCC(=O)O)C(=O)O)cc1 [Methotrexate], the LEL (rat [17]) is reported as 0.5 mg/kg/day, the LOAEL (rat [17]) is reported as greater than 2 mg/kg/day and the NEL (rat [17]) is reported as less than 0.5 mg/kg/day. It also gave an NOAEL (rat [17]) of no less than 2 mg/kg/day, an LEL (rat [18]) of 0.5 mg/kg/day and an LOAEL (rat [18]) greater than 0.5 mg/kg/day. For the same molecule, the NEL (rat [18]) was less than 0.5 mg/kg/day, the NOAEL (rat [18]) was no less than 0.5 mg/kg/day and the LEL (rabbit [19]; [37]) was 19.2 mg/kg/day. It also gave an LOAEL (rabbit [19]; [37]) greater than 19.2 mg/kg/day, an NOAEL (rabbit [19]; [37]) of no less than 19.2 mg/kg/day and an LEL (rabbit [19]; [38]) of 9.6 mg/kg/day. The NEL (rabbit [19]; [38]) was 4.8 mg/kg/day, the LOAEL (rabbit [19]; [39]) was greater than 19.2 mg/kg/day and the NOAEL (rabbit [19]; [39]) was no less than 19.2 mg/kg/day. For the same molecule, the LEL (rat [20]) was 0.5 mg/kg/day, the LOAEL (rat [20]) was greater than 2 mg/kg/day and the NEL (rat [20]) was less than 0.5 mg/kg/day. The NOAEL (rat [20]) was no less than 2 mg/kg/day.
